Laboratory results: US10584128B2, “Bicyclic dihydropyrimidine-carboxamide derivatives as Rho-Kinase inhibitors” (CHIESI FARMACEUTICI S.p.A., priority 2016, dated 2020)

What was measured:
[1] = target: Rho kinase 2 (Homo sapiens, UniProt O75116); experiment: In vitro Rho kinase inhibitory activity assay (ADP-Glo kit, Myelin Basic Protein substrate); format: biochemical; settings: 10 μM ATP, 25° C., read-out: ROCK2 inhibitory activity (Ki, range of activity)
Outline: (§1)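 Each kinase (ROCK1 or ROCK2) sat with compound for 30 min at 25 °C before 10 μM ATP started a 1 h reaction on 2.5 μM myelin basic protein (Tris pH 7.5, MgCl2, BSA, DTT, 1% DMSO). ADP formed was read by ADP-Glo luminescence. Dose-response IC50s were converted to Ki by Cheng-Prusoff.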

[2] = target: Rho kinase 1 (Homo sapiens, UniProt Q13464); experiment: as above; format: biochemical; settings: 10 μM ATP, 25° C., read-out: ROCK1 inhibitory activity (Ki, range of activity)
Outline: as §1

Rho kinase 2, sequence (O75116 whole entry): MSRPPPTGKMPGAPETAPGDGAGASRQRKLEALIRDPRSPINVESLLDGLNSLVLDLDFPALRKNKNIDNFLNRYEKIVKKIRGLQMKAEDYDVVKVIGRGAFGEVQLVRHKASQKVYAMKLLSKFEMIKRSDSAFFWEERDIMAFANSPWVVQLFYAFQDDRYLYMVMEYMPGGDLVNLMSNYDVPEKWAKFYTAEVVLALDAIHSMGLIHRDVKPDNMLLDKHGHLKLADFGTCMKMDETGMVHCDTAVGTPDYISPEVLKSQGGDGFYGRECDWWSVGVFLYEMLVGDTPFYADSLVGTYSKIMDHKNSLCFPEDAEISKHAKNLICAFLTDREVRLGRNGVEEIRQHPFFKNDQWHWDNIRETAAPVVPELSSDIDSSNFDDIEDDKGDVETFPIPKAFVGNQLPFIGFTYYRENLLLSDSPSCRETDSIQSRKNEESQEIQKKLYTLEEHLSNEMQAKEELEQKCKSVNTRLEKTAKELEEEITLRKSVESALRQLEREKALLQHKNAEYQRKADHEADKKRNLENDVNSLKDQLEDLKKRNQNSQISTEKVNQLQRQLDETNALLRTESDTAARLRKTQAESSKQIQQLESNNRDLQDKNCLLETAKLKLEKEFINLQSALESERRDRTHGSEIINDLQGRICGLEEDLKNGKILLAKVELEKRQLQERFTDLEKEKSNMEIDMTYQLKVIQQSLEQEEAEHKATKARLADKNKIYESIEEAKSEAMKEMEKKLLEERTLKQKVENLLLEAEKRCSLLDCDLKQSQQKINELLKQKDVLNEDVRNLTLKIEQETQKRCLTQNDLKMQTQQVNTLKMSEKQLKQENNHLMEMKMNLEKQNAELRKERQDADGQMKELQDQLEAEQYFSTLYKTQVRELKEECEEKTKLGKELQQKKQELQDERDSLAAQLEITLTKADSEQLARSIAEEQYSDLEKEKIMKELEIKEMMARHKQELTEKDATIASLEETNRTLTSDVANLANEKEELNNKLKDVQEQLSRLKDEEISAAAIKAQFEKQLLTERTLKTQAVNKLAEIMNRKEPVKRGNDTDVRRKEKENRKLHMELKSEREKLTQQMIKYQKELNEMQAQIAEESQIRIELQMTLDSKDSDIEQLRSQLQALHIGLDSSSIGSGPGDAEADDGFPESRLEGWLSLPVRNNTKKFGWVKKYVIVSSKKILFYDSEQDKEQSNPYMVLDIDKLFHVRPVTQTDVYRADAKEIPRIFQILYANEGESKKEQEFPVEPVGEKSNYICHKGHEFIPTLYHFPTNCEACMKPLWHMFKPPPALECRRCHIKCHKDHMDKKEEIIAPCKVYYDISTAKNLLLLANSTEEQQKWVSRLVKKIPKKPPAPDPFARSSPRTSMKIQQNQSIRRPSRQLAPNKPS
Rho kinase 1, sequence (Q13464 whole entry): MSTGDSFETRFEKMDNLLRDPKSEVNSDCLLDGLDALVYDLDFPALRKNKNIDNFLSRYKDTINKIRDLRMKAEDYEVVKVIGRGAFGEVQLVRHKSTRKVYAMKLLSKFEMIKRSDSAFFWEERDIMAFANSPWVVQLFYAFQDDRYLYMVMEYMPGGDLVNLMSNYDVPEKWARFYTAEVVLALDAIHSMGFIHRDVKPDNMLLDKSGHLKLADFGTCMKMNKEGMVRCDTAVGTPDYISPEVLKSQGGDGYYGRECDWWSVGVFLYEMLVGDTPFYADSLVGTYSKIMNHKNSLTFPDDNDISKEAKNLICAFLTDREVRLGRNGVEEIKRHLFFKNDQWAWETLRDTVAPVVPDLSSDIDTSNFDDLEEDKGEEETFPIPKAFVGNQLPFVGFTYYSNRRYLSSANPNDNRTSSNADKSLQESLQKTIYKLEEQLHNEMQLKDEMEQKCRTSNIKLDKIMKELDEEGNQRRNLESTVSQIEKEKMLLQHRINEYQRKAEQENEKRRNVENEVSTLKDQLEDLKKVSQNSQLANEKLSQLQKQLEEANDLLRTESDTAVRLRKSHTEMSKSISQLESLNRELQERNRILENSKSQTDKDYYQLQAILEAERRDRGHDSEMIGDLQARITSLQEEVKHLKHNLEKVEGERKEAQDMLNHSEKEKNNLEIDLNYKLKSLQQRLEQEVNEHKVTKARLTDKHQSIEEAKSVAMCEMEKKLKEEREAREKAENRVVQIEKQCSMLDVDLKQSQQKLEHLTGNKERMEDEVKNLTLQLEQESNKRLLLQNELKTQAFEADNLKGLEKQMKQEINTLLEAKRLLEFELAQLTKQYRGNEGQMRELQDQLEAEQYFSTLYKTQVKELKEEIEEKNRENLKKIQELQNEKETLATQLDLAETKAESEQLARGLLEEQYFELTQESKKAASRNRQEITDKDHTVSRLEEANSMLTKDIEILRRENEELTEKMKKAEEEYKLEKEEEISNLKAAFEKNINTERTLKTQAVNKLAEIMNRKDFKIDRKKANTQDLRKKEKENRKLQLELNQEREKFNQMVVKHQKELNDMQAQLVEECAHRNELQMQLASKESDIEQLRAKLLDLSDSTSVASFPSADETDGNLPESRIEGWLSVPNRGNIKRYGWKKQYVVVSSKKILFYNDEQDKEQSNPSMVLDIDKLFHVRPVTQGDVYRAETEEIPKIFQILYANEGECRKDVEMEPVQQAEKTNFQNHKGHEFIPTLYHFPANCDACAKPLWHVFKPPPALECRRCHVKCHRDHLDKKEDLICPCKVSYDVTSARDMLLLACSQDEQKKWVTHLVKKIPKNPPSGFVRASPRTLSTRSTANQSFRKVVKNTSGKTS

Row | Ki [1] [nM] | Ki [2] [nM] | SMILES
1 | < 50 | < 50 | CC1=C(C(=O)Nc2ccc3[nH]ncc3c2)C(c2ccc(F)cc2)n2ncc(C#N)c2N1 (stereo not drawn) [Example 18, 3-cyano-7-(4-fluorophenyl)-N-(1H-indazol-5-yl)-5-methyl-4,7-dihydropyrazolo[1,5-a]pyrimidine-6-carboxamide]
2 | < 50 | < 50 | CC1=C(C(=O)Nc2ccc3[nH]ncc3c2)C(c2ccc(F)cc2)n2ncc(Br)c2N1 (stereo not drawn) [Example 22, 3-bromo-7-(4-fluorophenyl)-N-(1H-indazol-5-yl)-5-methyl-4,7-dihydropyrazolo[1,5-a]pyrimidine-6-carboxamide]
3 | < 50 | < 50 | CC1=C(C(=O)Nc2ccc3[nH]ncc3c2)C(c2ccc(F)cc2)n2nc(C)cc2N1 (stereo not drawn) [Example 28, 7-(4-fluorophenyl)-N-(1H-indazol-5-yl)-2,5-dimethyl-4,7-dihydropyrazolo[1,5-a]pyrimidine-6-carboxamide]
4 | < 50 | < 50 | CC1=C(C(=O)Nc2ccc3[nH]ncc3c2)C(c2ccc(F)cc2)n2nc(C(C)(C)C)cc2N1 (stereo not drawn) [Example 29, 2-(tert-butyl)-7-(4-fluorophenyl)-N-(1H-indazol-5-yl)-5-methyl-4,7-dihydropyrazolo[1,5-a]pyrimidine-6-carboxamide]
5 | < 50 | < 50 | CC1=C(C(=O)Nc2ccc3[nH]ncc3c2)C(c2ccc(F)cc2)n2nc(C#N)cc2N1 (stereo not drawn) [Example 31, 2-cyano-7-(4-fluorophenyl)-N-(1H-indazol-5-yl)-5-methyl-4,7-dihydropyrazolo[1,5-a]pyrimidine-6-carboxamide]
6 | < 50 | < 50 | CC1=C(C(=O)Nc2ccc3[nH]ncc3c2)C(c2ccc(C(F)(F)F)cc2)n2nc(C#N)cc2N1 (stereo not drawn) [Example 34, 2-cyano-N-(1H-indazol-5-yl)-5-methyl-7-(4-(trifluoromethyl)phenyl)-4,7-dihydropyrazolo[1,5-a]pyrimidine-6-carboxamide]
7 | < 50 | < 50 | COCc1cc2n(n1)C(c1ccc(C(F)(F)F)cc1)C(C(=O)Nc1ccc3[nH]ncc3c1)=C(C)N2 (stereo not drawn) [Example 35, N-(1H-indazol-5-yl)-2-(methoxymethyl)-5-methyl-7-(4-(trifluoromethyl)phenyl)-4,7-dihydropyrazolo[1,5-a]pyrimidine-6-carboxamide]

Further lines, the molecule ahead of its results:

Row | SMILES | Ki [1] [nM] | Ki [2] [nM]
8 | CC1=C(C(=O)Nc2ccc3[nH]ncc3c2)C(c2ccc(F)cc2)n2ncc(C(N)=O)c2N1 (stereo not drawn) [Example 19, 7-(4-fluorophenyl)-N6-(1H-indazol-5-yl)-5-methyl-4,7-dihydropyrazolo[1,5-a]pyrimidine-3,6-dicarboxamide] | 50 to 500 | 50 to 500
9 | COc1ccc(-c2cc3n(n2)C(c2ccc(F)cc2)C(C(=O)Nc2ccc4[nH]ncc4c2)=C(C)N3)cc1 (stereo not drawn) [Example 20, 7-(4-fluorophenyl)-N-(1H-indazol-5-yl)-2-(4-methoxyphenyl)-5-methyl-4,7-dihydropyrazolo[1,5-a]pyrimidine-6-carboxamide] | < 50 | < 50
10 | COc1ccccc1-c1cc2n(n1)C(c1ccc(F)cc1)C(C(=O)Nc1ccc3[nH]ncc3c1)=C(C)N2 (stereo not drawn) [Example 21, 7-(4-fluorophenyl)-N-(1H-indazol-5-yl)-2-(2-methoxyphenyl)-5-methyl-4,7-dihydropyrazolo[1,5-a]pyrimidine-6-carboxamide] | 50 to 500 | 50 to 500
11 | CC1=C(C(=O)Nc2ccc3[nH]ncc3c2)C(c2ccc(F)cc2)n2nc(Br)cc2N1 (stereo not drawn) [Example 30, 2-bromo-7-(4-fluorophenyl)-N-(1H-indazol-5-yl)-5-methyl-4,7-dihydropyrazolo[1,5-a]pyrimidine-6-carboxamide] | < 50 | < 50
12 | CC1=C(C(=O)Nc2ccc3[nH]ncc3c2)C(C2CCN(C)CC2)n2nc(C(F)(F)F)cc2N1 (stereo not drawn) [Example 33, N-(1H-indazol-5-yl)-5-methyl-7-(1-methylpiperidin-4-yl)-2-(trifluoromethyl)-4,7-dihydropyrazolo[1,5-a]pyrimidine-6-carboxamide] | > 500 | > 500
